Measured values published in patent US10029017B2, “Pretargeted activatable cell penetrating peptide with intracellularly releasable prodrug” (The Regents of the University of California, priority 2013, dated 2018).
Non-standard residues stand in square brackets, D forms with d. Residues, ends and D or L forms follow the SMILES beside them. *: point of attachment. Dolaproine = CO[C@@H]([C@@H]1CCCN1)[C@@H](C)C(=O)O; Dil = CC[C@H](C)[C@H](NC)[C@@H](CC(=O)O)OC; X1 = C[C@@H](N*)[C@@H](O)c1ccccc1; NMeV = CN[C@H](C(=O)O)C(C)C

System: MDA-MB-231 orthotopic xenografts
Assay: chemotherapy of MDA-MB-231 orthotopic xenografts: tumor volume, regression, survival
Assay type: in vivo, mice
Conditions: 0.32 mg/kg equivalents of MMAE, equimolar free MMAE
Excerpt: A) Tumor growth curve obtained from MDA-MB-231 bilateral tumor bearing mice that were either intravenously injected with 6.5 nanomoles of MMAE (red line), cRAD-PEG6-MMAE (green line), cRGD-MMP-MMAE (dark blue) or no injection (no treatment, light blue).
Monomethyl auristatin E (MMAE), a potent chemotherapeutic inhibitor of tubulin polymerization, was conjugated to an ACPP via a peptide linker, Val-Cit-(p-amido)benzyloxycarbonyl, which is cleavable by cathepsin B, an endolysosomal protease. Mice harboring MDA-MB-231 orthotopic xenografts were dosed with cRGD-ACPP-MMAE at 0.2 mg/kg equivalents MMAE (6.5 nanomoles peptide) every three days for a total of four doses and tumor volumes were measured at regular intervals. […] When the dose was increased to 0.32 mg/kg equivalents of MMAE, the dual targeted peptide caused 4 out of 8 tumors to regress completely, compared to 2 out of 8 for equimolar free MMAE. The ACPPs caused no weight loss or gross toxicity. […] Animal weights are illustrated in FIGS. 7, 9, and 11.

CC[C@H](C)[C@@H]([C@@H](CC(=O)N1CCC[C@H]1[C@H](OC)[C@@H](C)C(=O)N[C@H](C)[C@@H](O)c1ccccc1)OC)N(C)C(=O)[C@@H](NC(=O)[C@@H](NC)C(C)C)C(C)C [MMAE, Monomethyl auristatin E] (H-[NMeV]V[Dil][Dolaproine]-X1)
tumors that regressed completely: 2 out of 8
